Where two headings read alike, the source gives them in different places.
Legend:
AKT1 WT = target: T1, AKT1 WT (Homo sapiens, UniProt P31749); assay: Live cell AKT1 WT target engagement by NanoBRET competitive probe displacement in HEK293 cells; assay type: binding; details: 2 h at 37° C.
T1 construct: expressed in transfected cells; host or cells: HEK293

AKT2 = target: T2, AKT2 (Homo sapiens, UniProt P31751); assay: Live cell AKT2 target engagement by NanoBRET competitive probe displacement in HEK293 cells; assay type: binding; details: 2 h at 37° C.
T2 construct: expressed in transfected cells; host or cells: HEK293
T2 sequence (P31751 whole entry): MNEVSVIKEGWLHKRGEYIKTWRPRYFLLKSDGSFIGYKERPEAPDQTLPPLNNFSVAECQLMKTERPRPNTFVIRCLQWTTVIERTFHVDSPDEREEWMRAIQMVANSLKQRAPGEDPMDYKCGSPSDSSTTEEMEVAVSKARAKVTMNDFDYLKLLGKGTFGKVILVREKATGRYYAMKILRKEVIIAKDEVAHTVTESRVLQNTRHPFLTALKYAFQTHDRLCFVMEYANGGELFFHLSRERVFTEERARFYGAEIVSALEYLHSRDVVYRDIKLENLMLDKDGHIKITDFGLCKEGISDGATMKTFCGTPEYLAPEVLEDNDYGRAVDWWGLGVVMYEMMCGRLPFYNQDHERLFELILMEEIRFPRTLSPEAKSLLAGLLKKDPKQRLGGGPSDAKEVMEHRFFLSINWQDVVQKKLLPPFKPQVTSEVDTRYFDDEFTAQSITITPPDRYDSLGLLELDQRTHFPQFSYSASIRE

[1] = NanoBRET competitive probe displacement, live HEK293 cells, read-out: AKT1 WT IC50
[2] = NanoBRET competitive probe displacement, live HEK293 cells, read-out: AKT2 IC50
[3] = NanoBRET live cell target engagement, HEK293 cells, read-out: AKT1 WT IC50
[4] = NanoBRET live cell target engagement, HEK293 cells, read-out: AKT2 IC50

T1 sequence (P31749 whole entry): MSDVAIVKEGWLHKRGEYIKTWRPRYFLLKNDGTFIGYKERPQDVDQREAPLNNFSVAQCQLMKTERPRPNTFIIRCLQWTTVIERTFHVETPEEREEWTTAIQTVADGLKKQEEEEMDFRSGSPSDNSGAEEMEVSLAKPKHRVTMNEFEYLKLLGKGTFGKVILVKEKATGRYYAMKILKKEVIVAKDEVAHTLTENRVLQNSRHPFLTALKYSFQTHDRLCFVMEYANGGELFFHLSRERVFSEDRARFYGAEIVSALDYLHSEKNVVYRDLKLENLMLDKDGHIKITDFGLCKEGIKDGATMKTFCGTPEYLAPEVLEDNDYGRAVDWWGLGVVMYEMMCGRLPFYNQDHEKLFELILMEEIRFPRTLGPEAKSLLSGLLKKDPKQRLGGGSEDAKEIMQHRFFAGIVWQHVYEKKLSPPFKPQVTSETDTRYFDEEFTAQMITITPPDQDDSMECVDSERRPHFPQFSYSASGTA

IC50 (AKT1 WT; [1]) [nM] | IC50 (AKT2; [2]) [nM] | IC50 (AKT1 WT; [3]) [nM] | IC50 (AKT2; [4]) [nM] | Structure (SMILES) | other results
 |  |  |  | Nc1ncccc1-c1nc2ccc(-n3cccn3)nc2n1-c1ccc2c(c1)CC[C@@H]2n1cc(-c2ccccc2)nn1 [Compound 155, (S)-3-(3-(1-(4-phenyl-1H-1,2,3-triazol-1-yl)-2,3-dihydro-1H-inden-5-yl)-5-(1H-pyrazol-1-yl)-3H-imidazo[4,5-b]pyridin-2-yl)pyridin-2-amine] | IC50 (AKT1 WT; AKT1 WT IC50 (nM), NanoBRET live cell target engagement, HEK293 cells): 16.5 nM; IC50 (AKT2; AKT2 IC50 (nM), NanoBRET live cell target engagement, HEK293 cells): 197 nM
39 | 1040 |  |  | Nc1ncccc1-c1nc2ccc(-n3cccn3)nc2n1-c1ccc2c(c1)CC[C@@H]2NC1CCN(c2cccnc2)C1 (stereo partly shown) [Compound 471] | 
87.9 | 904 |  |  | COc1cncc(-c2ccc3nc(-c4cccnc4N)n(-c4ccc5c(c4)CC[C@@H]5NC4CCN(C(=O)C5CC5)CC4)c3n2)n1 [Compound 577] | 
 |  | 7.16 | 51.6 | Nc1ncc(C(=O)N[C@H]2CCc3cc(-n4c(-c5cccnc5N)nc5ccc(-n6cccn6)nc54)ccc32)cc1F [Compound 298] | 
 |  | 8.95 | 15 | Nc1ncccc1-c1nc2ccc(-n3cccn3)nc2n1-c1ccc2c(c1)CC[C@@H]2NC(=O)c1cnc2c(c1)CCC2(F)F [Compound 66] | 
 |  | 721 | 532 | Cc1cc(C(=O)N[C@H]2CCc3cc(-n4c(-c5cccnc5N)nc5ccc(-n6cccn6)nc54)ccc32)nn1C [Compound 126] | 
 |  | 94.6 | 1910 | Nc1ncccc1-c1nc2ccc(-n3cccn3)nc2n1-c1ccc2c(c1)CC[C@@H]2NC(=O)c1cccn2ccnc12 [Compound 161] | 
 |  | > 1000 | > 10000 | Nc1ncccc1-c1nc2ccc(-n3cccn3)nc2n1-c1ccc2c(c1)CC[C@@H]2NC(=O)[C@H]1CCO1 [Compound 372] | 
 |  | 7.97 | 19.6 | COc1cc(C(=O)N[C@H]2CCc3cc(-n4c(-c5cccnc5N)nc5ccc(-n6cccn6)nc54)ccc32)cc(F)n1 [Compound 344] | 
 |  | 46.2 | 963 | Nc1ncccc1-c1nc2ccc(-n3cccn3)nc2n1-c1ccc2c(c1)CC[C@@H]2NC(=O)c1cccnc1C(F)(F)F [Compound 110] | 
 |  | 20.4 | 363 | Cn1nc(C(=O)N[C@H]2CCc3cc(-n4c(-c5cccnc5N)nc5ccc(-n6cccn6)nc54)ccc32)c2cccnc21 [Compound 163] | 
74.9 | 1690 |  |  | Cn1c(C(=O)N[C@H]2CCc3cc(-n4c(-c5cccnc5N)nc5ccc(-n6nccn6)nc54)ccc32)cnc1C(F)F [Compound 578] | 
 |  | 11.9 | 8.02 | Cc1cc(-n2cccn2)nc2c1nc(-c1cccnc1N)n2-c1ccc2c(c1)CC[C@@H]2NC(=O)c1ccc(C(F)F)nc1 [Compound 101] | 
358 | 3560 |  |  | Nc1ncccc1-c1nc2ccc(-n3cccn3)nc2n1-c1ccc2c(c1)CC[C@@H]2NC1CC2(CCCN(c3ccccn3)C2)C1 (stereo partly shown) [Compound 467] | 
 |  | 90.8 | 3160 | Nc1ncccc1-c1nc2ccc(-n3cccn3)nc2n1-c1ccc2c(c1)CC[C@@H]2NC(=O)c1nccnc1C(F)F [Compound 119] | 
24.1 | 2120 |  |  | Cc1ncc(C(=O)N[C@H]2CCc3cc(-n4c(-c5cccnc5N)nc5ccc(-n6nccn6)nc54)ccc32)s1 [Compound 492] | 
 |  | 95.9 | 2850 | Cc1ncccc1C(=O)N[C@H]1CCc2cc(-n3c(-c4cccnc4N)nc4ccc(-c5ncco5)nc43)ccc21 [Compound 229] | 
14.4 | 2100 |  |  | Cc1ccc(C(=O)N[C@H]2CCc3cc(-n4c(-c5ccccc5)nc5ccc(-n6cccn6)nc54)ccc32)cn1 [Compound 400] | 
26.1 | 562 |  |  | CN(C)C(=O)c1cc(C(=O)N[C@H]2CCc3cc(-n4c(-c5cccnc5N)nc5ccc(-n6cccn6)nc54)ccc32)ccc1O [Compound 414] | 

IC50 (AKT1 WT; [1]) [nM] | IC50 (AKT2; [2]) [nM] | IC50 (AKT1 WT; [3]) [nM] | IC50 (AKT2; [4]) [nM] | Structure (SMILES) | other results
 |  | 9.31 | 72.4 | CC(=O)Nc1ccc(C(=O)N[C@H]2CCc3cc(-n4c(-c5cccnc5N)nc5ccc(-n6cccn6)nc54)ccc32)cc1 [Compound 196] | 
 |  | 88.2 | 3520 | Nc1ncccc1-c1nc2ccc(-n3cccn3)nc2n1-c1ccc2c(c1)CC[C@@H]2n1cnnc1-c1ccccc1 [Compound 178] | 
235 | 6740 |  |  | COCCN(C)[C@H]1CCc2cc(-n3c(-c4cccnc4N)nc4ccc(-n5cccn5)nc43)ccc21 [Compound 457] | 
 |  | 34.4 | 442 | COc1ncccc1C(=O)N[C@H]1CCc2cc(-n3c(-c4cccnc4N)nc4ccc(-n5cccn5)nc43)ccc21 [Compound 128] | 
 |  | 23.9 | 753 | Cc1ncccc1-c1cn([C@H]2CCc3cc(-n4c(-c5cccnc5N)nc5ccc(-n6cccn6)nc54)ccc32)nn1 [Compound 254] | 
50.9 | 997 |  |  | COc1cnn(-c2ccc3nc(-c4cccnc4N)n(-c4ccc5c(c4)CC[C@@H]5NC4CCN(C(=O)C5CC5)CC4)c3n2)c1 [Compound 485] | 
46.2 | 1580 |  |  | CC#Cc1ccc2nc(-c3cccnc3N)n(-c3ccc4c(c3)CC[C@@H]4NC(=O)c3ccc(C(F)F)nc3)c2n1 [Compound 405] | 
71.5 | 7510 |  |  | Cn1ccc(Oc2ccc3nc(-c4cccnc4N)n(-c4ccc5c(c4)CC[C@@H]5NC(=O)c4cnc(C(F)F)s4)c3n2)n1 [Compound 558] | 
74.3 | 3200 |  |  | Nc1ncccc1-c1nc2ccc(-n3nccn3)nc2n1-c1ccc2c(c1)CC[C@@H]2NC(=O)c1ccc(CO)nc1 [Compound 490] | 
 |  | 24.7 | 987 | Cc1ccc(C(=O)N[C@H]2CCc3cc(-n4c(-c5cccnc5N)nc5ccc(-n6cncn6)nc54)ccc32)cn1 [Compound 346] | 
 |  | 65.8 | 2140 | Cc1ccc(S(=O)(=O)N[C@H]2CCc3cc(-n4c(-c5cccnc5N)nc5ccc(-n6cccn6)nc54)ccc32)cn1 [Compound 82] | 
 |  | 21.5 | 174 | Cc1cnc(C)c(C(=O)N[C@H]2CCc3cc(-n4c(-c5cccnc5N)nc5ccc(-n6cccn6)nc54)ccc32)c1 [Compound 137] | 
209 | > 10000 |  |  | Nc1ncccc1-c1nc2ccc(-n3cccn3)nc2n1-c1ccc2c(c1)CC[C@@H]2NC1CCN(C(=O)[C@H]2CC2(F)F)CC1 [Compound 476] | 
42.8 | > 10000 |  |  | Nc1ncccc1-c1nc2ccc(-n3ccc(C4CCOCC4)n3)nc2n1-c1ccc2c(c1)CC[C@@H]2NC1CCN(C(=O)C2CC2)CC1 [Compound 487] | 
 |  | 155 | 1810 | Nc1ncccc1-c1nc2ccc(-n3cccn3)nc2n1-c1ccc2c(c1)CC[C@@H]2NC1CCC1 [Compound 88, (S)-3-(3-(1-(cyclobutylamino)-2,3-dihydro-1H-inden-5-yl)-5-(1H-pyrazol-1-yl)-3H-imidazo[4,5-b]pyridin-2-yl)pyridin-2-amine] | 
 |  | 4.75 | 46.7 | Nc1ncccc1-c1nc2ccc(-n3cccn3)nc2n1-c1ccc2c(c1)CC[C@@H]2NC(=O)c1cc(F)c2[nH]ncc2c1 [Compound 261] | 
 |  | 7.55 | 164 | COc1cc(C(=O)N[C@H]2CCc3cc(-n4c(-c5cccnc5N)nc5ccc(-n6cccn6)nc54)ccc32)ccc1O [Compound 260] | 
 |  | 5.19 | 73.8 | CNC(=O)c1ccc(C(=O)N[C@H]2CCc3cc(-n4c(-c5cccnc5N)nc5ccc(-n6cccn6)nc54)ccc32)cc1 [Compound 256] | 
1.83 | 37.8 |  |  | CN1CCN(c2ccn(-c3ccc4nc(-c5cccnc5N)n(-c5ccc6c(c5)CC[C@@H]6NC5CCN(C(=O)C6CC6)CC5)c4n3)n2)CC1 [Compound 563] | 

Source: patent US12624034B2, “Non-covalent modifiers of AKT1 and uses thereof” (Terremoto Biosciences, Inc., priority 2023, dated 2026)
